From patent EP2657234B1, “OPTICALLY-ACTIVE DIAZABICYCLOOCTANE DERIVATIVE AND METHOD FOR MANUFACTURING SAME” (Meiji Seika Pharma Co., Ltd., priority 2010, dated 2012) come the findings set out here.

Where a name gives a salt, the structure may show the parent alone.

One experiment concerns the target T1, AmpC β-lactamase (Pseudomonas aeruginosa, UniProt P24735).
T1 construct: a DNA for encoding an AmpC β-lactamase domain excluding a signal peptide was amplified with PCR; made in house; host or cells: E. coli BL21
The experiment is classed as biochemical. To be noted: result in words.

Experiment [1] concerns P. aeruginosa PAO1 variant, which constitutively expresses AmpC. Briefly: Combinatorial effect: MIC of piperacillin (PIPC) by agar plate dilution (CLSI) with test compound. The experiment is classed as cell-based. Particulars: for MIC: Pseudomonas aeruginosa, PAO1; for effect of the compound in combination with an antibiotic: result in words. How it is done: The biological activity of the above-mentioned compounds of formulae (H) and (s) can be measured as follows. Specifically, an enzyme inhibitory activity (IC50 value) against AmpC enzyme which is a class C β-lactamase was determined using nitrocephin as a substrate to check whether or not the compounds had the inhibitory activity and compare the activities of them. Further, using constitutive AmpC producing Pseudomonas aeruginosa, a combined antimicrobial activity (MIC) was measured when using Piperacillin (PIPC) as an antibiotic and the compound of formula (H) or (s) in combination to check whether or not the antimicrobial activity of PIPC could be restored.
The combinatorial effect of the test compound with a β-lactam agent against bacteria was evaluated using AmpC constitutive expression strain selected from P. aeruginosa PAO1 through agent exposure. Using piperacillin (PIPC, Sigma-Aldrich) as a β-lactam agent, measurement was conducted by agar plate dilution process in which minimal inhibitory concentration (MIC) of PIPC is based on Clinical and Laboratory Standards Institute (CLSI process). That is, an agara plate containing 4 µg/mL (final concentration) of test compound and PIPC at each concentration in Mueller-Hinton agar (Becton, Dickinson and Company) was made, and bacteria cultured overnight in cation-adjusted Muller-Hinton broth (Becton, Dickinson and Company) were adjusted in the same medium so as to have 10^4 CFU/spot and inoculated on a plate containing an agent. This plate containing an agent was cultured overnight at 35 °C, and the minimum agent concentration in which no growth of bacteria is observed was determined to be MIC.

The term MIC denotes the least concentration at which growth counts as inhibited.

T1 sequence (P24735 27-397): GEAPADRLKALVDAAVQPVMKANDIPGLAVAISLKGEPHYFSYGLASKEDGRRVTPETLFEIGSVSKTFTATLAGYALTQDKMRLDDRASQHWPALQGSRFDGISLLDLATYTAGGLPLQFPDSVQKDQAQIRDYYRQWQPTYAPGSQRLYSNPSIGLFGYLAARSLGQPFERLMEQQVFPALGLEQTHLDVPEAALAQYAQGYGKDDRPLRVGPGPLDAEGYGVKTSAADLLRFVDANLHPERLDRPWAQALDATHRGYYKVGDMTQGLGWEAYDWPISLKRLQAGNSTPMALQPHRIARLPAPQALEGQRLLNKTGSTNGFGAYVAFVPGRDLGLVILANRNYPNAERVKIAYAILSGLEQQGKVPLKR

Turning to `NC(=O)C1CCC2CN1C(=O)N2OS(=O)(=O)O` [Example 23, (2S,5R)-1,6-Diazabicyclo[3.2.1]octane-2-carboxamide, 7-oxo-6-(sulfoxy)-monosodium salt], the “β-lactamase enzyme inhibitory activity” value on AmpC β-lactamase is reported as “exhibited the activities”. Further, in experiment [1], the MIC stood at 4 µg/mL and the “effect of the compound in combination with an antibiotic” value was “exhibited the activities”.
Consider `NC(=O)[C@H]1CC[C@H]2CN1C(=O)N2OS(=O)(=O)O` [Example 24, (2R,5S)-1,6-Diazabicyclo[3.2.1]octane-2-carboxamide, 7-oxo-6-(sulfoxy)-monosodium salt], for which the “β-lactamase enzyme inhibitory activity” value at AmpC β-lactamase was “exhibited no activity”. Further, in experiment [1], the MIC came out at 64 µg/mL and the “effect of the compound in combination with an antibiotic” value is recorded as “exhibited no activity”.
In the case of `C[C@]1(Cn2ccnn2)[C@H](C(=O)O)N2C(=O)C[C@H]2S1(=O)=O` [TAZ, Tazobactam, reference compound], the MIC in experiment [1] was determined as 64 µg/mL.
